Measured values reported in PubChem BioAssay (NCI).
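Five concentrations, 48 hours, 96-well plates. TGI marks complete inhibition of growth.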

Legend:
Test in all cases: NCI tumour cell line growth inhibition, 48 h
HOP-18 NSCLC = system: HOP-18 NSCLC
SNB-78 CNS = system: SNB-78 CNS
LXFL 529 NSCLC = system: LXFL 529 NSCLC
DMS 114 small cell lung = system: DMS 114 small cell lung
M19-MEL melanoma = system: M19-MEL melanoma
P388/ADR leukemia = system: P388/ADR leukemia
P388 leukemia = system: P388 leukemia
SN12K1 renal = system: SN12K1 renal
786-0 renal = system: 786-0 renal

| SMILES | TGI (HOP-18 NSCLC) | TGI (SNB-78 CNS) | TGI (LXFL 529 NSCLC) | TGI (DMS 114 small cell lung) | TGI (M19-MEL melanoma) | TGI (P388/ADR leukemia) | TGI (P388 leukemia) | TGI (SN12K1 renal) | TGI (786-0 renal) |
| --- | --- | --- | --- | --- | --- | --- | --- | --- | --- |
| C/C(=N\NC(=S)N1CCC(N2CCCCC2)CC1)c1ccccn1 | 14.5 µM | 27.5 µM | 13.6 µM | 8.86 µM | 12.6 µM | – | – | – | – |
| CCOC(=O)/C=C/c1c(C)[nH]c(=O)[nH]c1=O | > 250 µM | > 250 µM | – | > 250 µM | > 250 µM | > 158 µM | > 141 µM | > 250 µM | – |
| CN=C(Nc1ccc(OC)c2ccccc12)SC | – | – | – | – | – | – | – | – | > 10 µM |
| O=c1[nH]c(SCc2cccc([N+](=O)[O-])c2)nc2nc[nH]c12 | – | – | – | – | – | – | – | – | > 100 µM |
| O=c1nc2ccc([N+](=O)[O-])cc2[n+]([O-])[nH]1 | – | – | – | – | – | – | – | – | > 100 µM |
| c1cc2c3c(c1)c1cc4c(cc1c[n+]3CC2)OCO4 | 88.4 µM | 47.1 µM | – | 9.27 µM | 5.21 µM | > 225 µM | 4.22 µM | 12.2 µM | – |
| COc1cc(-c2ccc(N=Nc3ccc4c(S(=O)(=O)O)cc(S(=O)(=O)O)c(N)c4c3O)c(OC)c2)ccc1N=Nc1ccc2c(S(=O)(=O)O)cc(S(=O)(=O)O)c(N)c2c1O | 98.1 µM | > 100 µM | – | > 100 µM | > 100 µM | > 100 µM | > 100 µM | > 100 µM | – |
| C/C(=N\NC(=O)c1ccc(Cl)cc1)c1nc2ncccc2[nH]1 | – | – | – | – | – | – | – | – | 55.3 µM |
| O=C(/C=C1\Sc2ccccc2N=C1CC(=O)c1ccccc1)c1ccccc1 | – | – | – | – | – | – | – | – | 21.7 µM |
| O=c1oc(-c2ccc(O)cc2)cc2cc(O)ccc12 | – | – | – | – | – | – | – | – | > 100 µM |
| O=C(NN1C(=O)C(Cl)C1c1cccc([N+](=O)[O-])c1)c1ccccc1O (stereo unspecified) | – | – | > 100 µM | > 100 µM | > 100 µM | – | – | – | – |
| COc1ccc(C2=[S+]C(c3ccccc3)(c3ccccc3)c3ccccc32)cc1 | – | – | – | – | – | – | – | – | 34.9 µM |
| c1ccc2c(c1)NCc1cc3ccccc3nc1O2 | > 100 µM | > 100 µM | – | > 100 µM | > 100 µM | > 100 µM | > 100 µM | > 100 µM | – |
| N#[N+]c1c([O-])c2ccccc2c2ccccc12 | – | – | – | – | – | – | – | – | > 100 µM |
| O=C1C(CO)=C[C@H](O)[C@H]2O[C@@H]12 | > 625 µM | 480 µM | – | 296 µM | 292 µM | 225 µM | 195 µM | 278 µM | – |
